Assay results: patent US20240132464A1, “HETEROCYCLIC COMPOUNDS AS E3 LIGASE INHIBITORS” (Accutar Biotechnology Inc., priority 2022, published 2024)

Target: T1, GID4 (Uniprot ID: Q81VV7, residues 124-289) (Homo sapiens, UniProt Q8IVV7)
T1 construct: GID4 (Uniprot ID: Q81VV7, residues 124-289)
T1 sequence (Q8IVV7 124-289): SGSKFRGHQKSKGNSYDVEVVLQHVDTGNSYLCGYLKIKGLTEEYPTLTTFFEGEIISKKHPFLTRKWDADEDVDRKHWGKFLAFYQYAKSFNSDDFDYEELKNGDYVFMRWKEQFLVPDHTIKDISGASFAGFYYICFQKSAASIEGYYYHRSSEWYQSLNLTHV
Test: GID4 competitive binding assay (AlphaScreen, GID4/degron peptide PGLW)
Details: 24 nM GID4, 48 nM biotinylated degron peptide PGLW, 4° C., read-out: IC50 (Inhibition of GID4/Degron binding by test compounds)
Experimental: GID4 Competitive Binding Assay
GID4 binding affinity of compounds disclosed herein was measured by monitoring the interaction of GID4 with its degron peptide (PGLW) in the presence of the test compounds. A truncated version of GID4 (Uniprot ID: Q81VV7, residues 124-289) with a 6*His at its C-terminus was used in this assay. Tetrapeptide, PGLW, was synthesized and tagged with an additional lysine labeled with biotin at its sidechain.
GID4 competitive binding assays were performed in a 384-well plate at 4° C. in a 20 μL reaction volume. Briefly, 24 nM GID4 (final concentration) proteins were pre-incubated with 48 nM biotinylated degron peptide (final concentration) in an assay buffer containing 20 mM HEPES, pH 7.5, 100 mM NaCl, 1 mM DTT, 0.1% Tween-20, and 0.05% BSA in the presence of the test compound in 2% DMSO (final concentration) at various concentrations for 2 h. 5 ug/ml Streptavidin ALphaScreen donor beads and 5 ug/ml nickel chelate (Ni-NTA) ALphaScreen acceptor beads (PerkinElmer, 6760619C) (final concentrations) were then added to the mixture. After an incubation of 1 h at 4° C., the fluorescent signals were obtained on the EnVision® 2105 Multilabel Plate Reader (PerkinElmer).
Raw ALphaScreen data were converted to a percentage of inhibition (relative to DMSO) using the following equations: […]
For a given test compound concentration X:
Signal (X)=Signal (GID4 & peptide & compound)−Signal (GID4 & buffer & compound)
Percentage of inhibition at concentration X=[1−Signal(X)/Signal (DMSO)]*100% b)
The IC50 values were determined by nonlinear regression of plots of [inhibitor] vs. percentage of inhibition with variable slope.
Table 3 summarizes the inhibition of binding between GID4 and degron peptide with compounds of the present disclosure. Compounds were ranked into bins as follows for IC50: A indicates <500 nM; B indicates 500 nM-5000 nM; C indicates >5000 nM.

| IC50 | SMILES |
| --- | --- |
| > 5000 nM | CN1CC(CNC(=O)c2cccc(-c3ccc4ccnc(N)c4c3)c2)C1 [Compound 347, 3-(1-aminoisoquinolin-7-yl)-N-((1-methylazetidin-3-yl)methyl)benzamide] |
| 500 to 5000 nM | Nc1nc(N2CCO[C@@H](c3ccccc3Br)C2)c2[nH]ccc2n1 (racemic) [Compound 47, (S/R)-4-(2-(2-bromophenyl)morpholino)-5H-pyrrolo[3,2-d]pyrimidin-2-amine] |
| < 500 nM | Nc1cc(N2CCNC(c3cc(N4CCC(CO)CC4)ccc3Br)C2)nc(N)n1 (stereo not shown) [Compound 33, (1-(4-bromo-3-(4-(2,6-diaminopyrimidin-4-yl)piperazin-2-yl)phenyl)piperidin-4-yl)methanol] |
| > 5000 nM | CC(C)Nc1nc(C(C)C)cc(N2CCNC(c3ccccc3Br)C2)n1 (single isomer, unassigned) [Compound 150, (S/R)-4-(3-(2-bromophenyl)piperazin-1-yl)-N,6-diisopropylpyrimidin-2-amine] |
| < 500 nM | CN(C)CCNCc1n[nH]c2ccc(-c3ccc4ccnc(N)c4c3)cc12 [Compound 3, N1-((5-(1-aminoisoquinolin-7-yl)-1H-indazol-3-yl)methyl)-N2,N2-dimethylethane-1,2-diamine] |
| > 5000 nM | CNc1cc(N2CCNC(c3ccccc3)C2)nc(N)n1 (single isomer, unassigned) [Compound 128, (R/S)-N4-methyl-6-(3-phenylpiperazin-1-yl)pyrimidine-2,4-diamine] |
| < 500 nM | CN(C)CCCNC(=O)c1c[nH]c(-c2cc(O)c3ncccc3c2)n1 [Compound 277, N-(3-(dimethylamino)propyl)-2-(8-hydroxyquinolin-6-yl)-1H-imidazole-4-carboxamide] |
| 500 to 5000 nM | CNc1cc(N2CCCC(c3cnc4ccccn34)C2)nc(C(C)C)n1 (single isomer, unassigned) [Compound 125, (S/R)-6-(3-(imidazo[1,2-a]pyridin-3-yl)piperidin-1-yl)-2-isopropyl-N-methylpyrimidin-4-amine] |
| > 5000 nM | CN1CCN(c2cc(N)nc(N)n2)C[C@@H]1c1ccccc1Br (racemic) [Compound 144, (S/R)-6-(3-(2-bromophenyl)-4-methylpiperazin-1-yl)pyrimidine-2,4-diamine] |
| < 500 nM | CC(C)c1cc(N2CCN(C)C(c3cnc4ccccn34)C2)nc(N)n1 (racemic) [Compound 106, (R/S)-4-(3-(imidazo[1,2-a]pyridin-3-yl)-4-methylpiperazin-1-yl)-6-isopropylpyrimidin-2-amine] |
| < 500 nM | CC(C)c1cc(N2CCNC(c3cc(N4CC(CO)C4)ccc3Br)C2)nc(N)n1 (single isomer, unassigned) [Compound 30, (R/S)-(1-(3-(4-(2-amino-6-isopropylpyrimidin-4-yl)piperazin-2-yl)-4-bromophenyl)azetidin-3-yl)methanol] |
| 500 to 5000 nM | CC(C)c1cc(N2CCCC(F)(c3ccccc3Br)C2)nc(N)n1 (stereo not shown) [Compound 233, 4-(3-(2-bromophenyl)-3-fluoropiperidin-1-yl)-6-isopropylpyrimidin-2-amine] |
| < 500 nM | CN1CCN(C(=O)c2ccc(Br)c(C3CN(c4cc(N)nc(N)n4)CCN3)c2)CC1 (single isomer, unassigned) [Compound 15, (R/S)-(4-bromo-3-(4-(2,6-diaminopyrimidin-4-yl)piperazin-2-yl)phenyl)(4-methylpiperazin-1-yl)methanone] |
| 500 to 5000 nM | Nc1nc2c(c(N3CCCC(c4ccn[nH]4)C3)n1)CCCN2 (stereo not shown) [Compound 187, 4-(3-(1H-pyrazol-5-yl)piperidin-1-yl)-5,6,7,8-tetrahydropyrido[2,3-d]pyrimidin-2-amine] |
| 500 to 5000 nM | CC(C)c1cc(N2CCCC(c3cnc4c(F)cc(F)cn34)C2)nc(N)n1 (stereo not shown) [Compound 242, 4-(3-(6,8-difluoroimidazo[1,2-a]pyridin-3-yl)piperidin-1-yl)-6-isopropylpyrimidin-2-amine] |
| > 5000 nM | CN1CCN(c2cc(NCC3CC3)nc(N)n2)C[C@@H]1c1ccccc1Br (racemic) [Compound 100, (S/R)-6-(3-(2-bromophenyl)-4-methylpiperazin-1-yl)-N4-(cyclopropylmethyl)pyrimidine-2,4-diamine] |
| 500 to 5000 nM | Nc1nccc2ccc(-c3cccc(C(=O)N4CCCC4)c3)cc12 [Compound 353, (3-(1-aminoisoquinolin-7-yl)phenyl)(pyrrolidin-1-yl)methanone] |

| IC50 | SMILES |
| --- | --- |
| 500 to 5000 nM | CC(=O)N1CCN(c2cc(N)nc(NC3CC3)n2)CC1c1ccccc1Br (stereo not shown) [Compound 52, 1-(4-(6-amino-2-(cyclopropylamino)pyrimidin-4-yl)-2-(2-bromophenyl)piperazin-1-yl)ethan-1-one] |
| < 500 nM | CC(C)c1nc(N)cc(N2CCCC(c3cnc4ccccn34)C2)n1 (single isomer, unassigned) [Compound 141, R or S-6-(3-(imidazo[1,2-a]pyridin-3-yl)piperidin-1-yl)-2-isopropylpyrimidin-4-amine] |
| < 500 nM | Nc1nc(NC2CC2)cc(N2CCN(CCO)[C@@H](c3ccccc3Br)C2)n1 (racemic) [Compound 45, (S/R)-2-(4-(2-amino-6-(cyclopropylamino)pyrimidin-4-yl)-2-(2-bromophenyl)piperazin-1-yl)ethan-1-ol] |
| 500 to 5000 nM | O=C(c1cccc(-c2cc(O)c3ncccc3c2)c1)N1CCCC1 [Compound 293, (3-(8-hydroxyquinolin-6-yl)phenyl)(pyrrolidin-1-yl)methanone] |
| < 500 nM | CN(C)[C@H]1C[C@H](NC(=O)c2ccc(-c3cc(O)c4ncccc4c3)cc2)C1 [Compound 280, N-(trans-3-(dimethylamino)cyclobutyl)-4-(8-hydroxyquinolin-6-yl)benzamide] |
| 500 to 5000 nM | CNc1cc(N2CCNC(c3cnc4ccccn34)C2)nc(N)n1 (stereo not shown) [Compound 92, 6-(3-(imidazo[1,2-a]pyridin-3-yl)piperazin-1-yl)-N4-methylpyrimidine-2,4-diamine] |
| 500 to 5000 nM | CNc1cc(N2CCN(C)[C@@H](c3ccccc3Br)C2)nc(NC)n1 (stereo in doubt) [Compound 81, (S/R)-6-(3-(2-bromophenyl)-4-methylpiperazin-1-yl)-N2,N4-dimethylpyrimidine-2,4-diamine] |
| 500 to 5000 nM | CN(C)CCNC(=O)c1n[nH]c2ccc(-c3ccc4ccnc(N)c4c3)nc12 [Compound 327, 5-(1-aminoisoquinolin-7-yl)-N-(2-(dimethylamino)ethyl)-1H-pyrazolo[4,3-b]pyridine-3-carboxamide] |
| < 500 nM | CN(C)CCCNC(=O)c1cc(F)c(-c2cc(O)c3ncccc3c2)cc1F [Compound 316, N-(3-(dimethylamino)propyl)-2,5-difluoro-4-(8-hydroxyquinolin-6-yl)benzamide] |
| < 500 nM | CNc1cc(N2CCNC(c3ccccc3Br)C2)nc(N)n1 (stereo not shown) [Compound 167] |
| > 5000 nM | CC(C)Nc1nc(C(C)C)cc(N2CCNC(c3ccccc3Br)C2)n1 (single isomer, unassigned) [Compound 151, (R/S)-4-(3-(2-bromophenyl)piperazin-1-yl)-N,6-diisopropylpyrimidin-2-amine] |
| 500 to 5000 nM | Nc1nccc2ccc(-c3cc(C(=O)N4CCCC4)cc4c3CCCC4)cc12 [Compound 342, (4-(1-aminoisoquinolin-7-yl)-5,6,7,8-tetrahydronaphthalen-2-yl)(pyrrolidin-1-yl)methanone] |
| < 500 nM | CN(C)CCNC(=O)c1ccc(-c2cc(O)c3ncccc3c2)cc1 [Compound 299, N-(2-(dimethylamino)ethyl)-4-(8-hydroxyquinolin-6-yl)benzamide] |
| 500 to 5000 nM | COc1ccccc1C1CN(c2cc(C(C)C)nc(N)n2)CCN1 (stereo not shown) [Compound 171, 4-isopropyl-6-(3-(2-methoxyphenyl)piperazin-1-yl)pyrimidin-2-amine] |
| 500 to 5000 nM | CNc1nc(C(C)C)cc(N2CCNC(c3ccccc3Br)C2)n1 (single isomer, unassigned) [Compound 153, R or S-4-(3-(2-bromophenyl)piperazin-1-yl)-6-isopropyl-N-methylpyrimidin-2-amine] |
| < 500 nM | CN(C)CCCCNC(=O)c1ccc(-c2cc(O)c3ncccc3c2)cc1 [Compound 289, N-(4-(dimethylamino)butyl)-4-(8-hydroxyquinolin-6-yl)benzamide] |
| 500 to 5000 nM | Cc1c(-c2ccc(Br)c(C3CN(c4cc(C(C)C)nc(N)n4)CCN3)c2)cnn1C (single isomer, unassigned) [Compound 7, R or S-4-(3-(2-bromo-5-(1,5-dimethyl-1H-pyrazol-4-yl)phenyl)piperazin-1-yl)-6-isopropylpyrimidin-2-amine] |
